{"source": "paper PMC8213057", "about": "“Targeting ALK2: An Open Science Approach to Developing Therapeutics for the Treatment of Diffuse Intrinsic Pontine Glioma” (Journal of Medicinal Chemistry, 2020)", "key": {"PKCtheta": {"target": "PKCtheta (Homo sapiens, UniProt Q04759)", "sequence (Q04759 whole entry)": "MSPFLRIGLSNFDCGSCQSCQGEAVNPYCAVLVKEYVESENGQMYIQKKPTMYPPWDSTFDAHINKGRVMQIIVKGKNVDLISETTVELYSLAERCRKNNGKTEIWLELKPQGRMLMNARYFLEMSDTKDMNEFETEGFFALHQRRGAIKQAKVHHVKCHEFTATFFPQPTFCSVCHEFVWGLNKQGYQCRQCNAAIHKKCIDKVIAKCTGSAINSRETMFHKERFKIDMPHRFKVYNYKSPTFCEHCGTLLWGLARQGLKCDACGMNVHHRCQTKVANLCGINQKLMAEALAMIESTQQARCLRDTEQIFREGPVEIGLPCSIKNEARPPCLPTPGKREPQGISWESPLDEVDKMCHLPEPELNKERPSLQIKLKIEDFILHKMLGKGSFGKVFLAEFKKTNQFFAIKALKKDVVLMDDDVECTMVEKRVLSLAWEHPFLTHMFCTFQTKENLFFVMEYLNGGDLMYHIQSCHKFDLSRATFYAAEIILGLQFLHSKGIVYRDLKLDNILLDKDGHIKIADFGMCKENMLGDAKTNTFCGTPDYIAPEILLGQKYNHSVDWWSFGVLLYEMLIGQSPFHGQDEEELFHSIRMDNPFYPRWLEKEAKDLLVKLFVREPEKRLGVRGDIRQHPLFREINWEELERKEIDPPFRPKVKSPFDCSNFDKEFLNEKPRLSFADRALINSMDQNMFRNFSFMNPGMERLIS", "settings": "1 μM; Run 1, Run 2"}, "TYRO3/SKY": {"target": "T1, TYRO3/SKY (Homo sapiens, UniProt Q06418)", "T1 sequence (Q06418 41-890)": "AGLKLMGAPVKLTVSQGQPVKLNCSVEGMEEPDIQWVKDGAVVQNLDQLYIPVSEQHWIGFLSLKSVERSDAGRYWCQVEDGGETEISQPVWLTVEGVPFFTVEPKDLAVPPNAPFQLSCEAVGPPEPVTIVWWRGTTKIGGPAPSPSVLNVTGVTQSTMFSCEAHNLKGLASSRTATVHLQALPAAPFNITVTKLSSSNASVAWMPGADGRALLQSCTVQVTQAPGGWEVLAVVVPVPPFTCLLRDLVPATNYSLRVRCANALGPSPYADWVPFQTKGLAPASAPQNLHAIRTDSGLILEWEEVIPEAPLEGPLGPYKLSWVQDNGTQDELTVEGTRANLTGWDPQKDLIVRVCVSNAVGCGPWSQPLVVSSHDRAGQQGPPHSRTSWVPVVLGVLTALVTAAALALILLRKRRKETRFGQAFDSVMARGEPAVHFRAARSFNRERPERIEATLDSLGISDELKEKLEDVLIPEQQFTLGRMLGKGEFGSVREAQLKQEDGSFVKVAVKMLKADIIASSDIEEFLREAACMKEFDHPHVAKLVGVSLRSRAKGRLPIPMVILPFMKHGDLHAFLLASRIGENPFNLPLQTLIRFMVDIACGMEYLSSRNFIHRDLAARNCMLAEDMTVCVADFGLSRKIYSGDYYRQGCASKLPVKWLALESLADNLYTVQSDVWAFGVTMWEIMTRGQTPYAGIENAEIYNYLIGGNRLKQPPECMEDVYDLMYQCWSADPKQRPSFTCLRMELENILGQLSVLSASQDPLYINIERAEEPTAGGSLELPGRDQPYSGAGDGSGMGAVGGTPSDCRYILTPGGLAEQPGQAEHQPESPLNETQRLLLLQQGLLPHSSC", "test": "biochemical", "settings": "read-out: % enzyme activity, 1 μM; Run 1, Run 2"}, "PLK2": {"target": "PLK2 (Homo sapiens, UniProt Q9NYY3)", "sequence (Q9NYY3 whole entry)": "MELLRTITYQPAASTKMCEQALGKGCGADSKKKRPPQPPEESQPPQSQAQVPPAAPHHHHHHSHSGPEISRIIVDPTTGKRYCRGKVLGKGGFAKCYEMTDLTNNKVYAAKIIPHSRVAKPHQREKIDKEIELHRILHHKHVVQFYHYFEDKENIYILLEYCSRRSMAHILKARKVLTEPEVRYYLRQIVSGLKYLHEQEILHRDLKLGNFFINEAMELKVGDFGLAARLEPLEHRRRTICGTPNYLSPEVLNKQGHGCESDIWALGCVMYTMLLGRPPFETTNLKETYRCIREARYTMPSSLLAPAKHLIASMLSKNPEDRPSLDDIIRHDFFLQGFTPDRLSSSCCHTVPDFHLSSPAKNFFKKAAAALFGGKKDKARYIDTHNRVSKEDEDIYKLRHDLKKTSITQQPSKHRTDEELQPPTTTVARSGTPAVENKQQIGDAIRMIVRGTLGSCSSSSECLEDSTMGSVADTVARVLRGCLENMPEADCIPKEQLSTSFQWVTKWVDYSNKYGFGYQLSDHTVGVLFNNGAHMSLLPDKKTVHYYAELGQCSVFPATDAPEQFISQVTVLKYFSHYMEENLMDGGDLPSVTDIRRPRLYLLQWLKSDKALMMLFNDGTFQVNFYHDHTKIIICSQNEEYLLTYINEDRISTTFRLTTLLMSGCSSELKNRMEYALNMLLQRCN", "settings": "1 μM; Run 1, Run 2"}, "MAK": {"target": "T2, MAK (Homo sapiens, UniProt P20794)", "T2 sequence (P20794 1-623)": "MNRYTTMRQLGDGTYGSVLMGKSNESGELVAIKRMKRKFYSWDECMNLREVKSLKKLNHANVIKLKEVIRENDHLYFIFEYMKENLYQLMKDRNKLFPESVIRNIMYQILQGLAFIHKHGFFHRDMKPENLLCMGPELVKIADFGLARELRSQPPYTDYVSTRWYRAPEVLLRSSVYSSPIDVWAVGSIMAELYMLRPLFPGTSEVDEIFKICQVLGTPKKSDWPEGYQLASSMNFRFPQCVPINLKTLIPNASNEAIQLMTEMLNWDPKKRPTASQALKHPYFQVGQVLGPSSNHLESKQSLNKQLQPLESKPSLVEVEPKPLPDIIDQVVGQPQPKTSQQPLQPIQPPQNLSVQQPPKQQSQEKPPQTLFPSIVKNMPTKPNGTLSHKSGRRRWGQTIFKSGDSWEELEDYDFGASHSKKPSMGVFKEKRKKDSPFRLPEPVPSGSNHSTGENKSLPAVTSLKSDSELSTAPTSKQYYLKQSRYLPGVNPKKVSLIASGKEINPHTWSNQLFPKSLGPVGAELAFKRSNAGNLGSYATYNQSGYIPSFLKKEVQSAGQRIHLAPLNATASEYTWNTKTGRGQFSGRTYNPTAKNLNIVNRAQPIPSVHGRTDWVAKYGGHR", "test": "biochemical", "settings": "read-out: % enzyme activity, 1 μM; Run 1, Run 2"}, "TESK1": {"target": "TESK1 (Homo sapiens, UniProt Q15569)", "sequence (Q15569 whole entry)": "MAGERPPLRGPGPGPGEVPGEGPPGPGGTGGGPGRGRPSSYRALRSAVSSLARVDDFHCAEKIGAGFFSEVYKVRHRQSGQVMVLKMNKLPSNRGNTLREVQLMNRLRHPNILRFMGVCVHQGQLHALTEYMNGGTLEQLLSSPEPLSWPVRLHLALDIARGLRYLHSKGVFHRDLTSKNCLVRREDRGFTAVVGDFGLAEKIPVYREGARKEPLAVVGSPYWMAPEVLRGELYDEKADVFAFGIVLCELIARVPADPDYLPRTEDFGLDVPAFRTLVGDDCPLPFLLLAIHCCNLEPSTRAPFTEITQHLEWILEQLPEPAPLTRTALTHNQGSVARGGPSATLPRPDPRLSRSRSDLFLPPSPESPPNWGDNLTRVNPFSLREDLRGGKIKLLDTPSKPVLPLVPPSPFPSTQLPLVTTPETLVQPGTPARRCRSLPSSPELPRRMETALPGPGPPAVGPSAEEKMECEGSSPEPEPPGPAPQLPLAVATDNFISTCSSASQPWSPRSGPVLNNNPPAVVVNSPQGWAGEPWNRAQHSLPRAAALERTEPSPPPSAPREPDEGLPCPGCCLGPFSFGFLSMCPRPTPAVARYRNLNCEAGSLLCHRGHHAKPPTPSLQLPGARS", "settings": "1 μM; Run 1, Run 2"}, "GRK1": {"target": "T3, GRK1 (Homo sapiens, UniProt Q15835)", "T3 sequence (Q15835 1-563)": "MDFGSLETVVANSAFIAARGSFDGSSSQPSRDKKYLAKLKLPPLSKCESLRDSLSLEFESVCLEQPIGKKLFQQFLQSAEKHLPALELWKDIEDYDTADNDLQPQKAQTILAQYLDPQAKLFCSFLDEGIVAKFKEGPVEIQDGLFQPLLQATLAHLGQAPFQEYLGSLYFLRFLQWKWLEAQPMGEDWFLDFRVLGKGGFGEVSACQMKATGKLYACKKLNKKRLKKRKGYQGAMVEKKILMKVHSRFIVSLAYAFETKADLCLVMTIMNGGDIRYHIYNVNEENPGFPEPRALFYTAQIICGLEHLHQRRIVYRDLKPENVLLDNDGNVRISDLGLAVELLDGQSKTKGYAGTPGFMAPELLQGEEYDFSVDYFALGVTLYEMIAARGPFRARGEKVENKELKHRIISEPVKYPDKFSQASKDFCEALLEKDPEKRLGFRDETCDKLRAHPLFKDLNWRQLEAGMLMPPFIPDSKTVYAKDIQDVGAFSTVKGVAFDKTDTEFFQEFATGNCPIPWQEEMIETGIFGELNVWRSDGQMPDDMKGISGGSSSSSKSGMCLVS", "test": "biochemical", "settings": "read-out: % enzyme activity, 1 μM; Run 1, Run 2"}, "SGK1": {"target": "T4, SGK1 (Homo sapiens, UniProt O00141)", "T4 sequence (O00141 1-431)": "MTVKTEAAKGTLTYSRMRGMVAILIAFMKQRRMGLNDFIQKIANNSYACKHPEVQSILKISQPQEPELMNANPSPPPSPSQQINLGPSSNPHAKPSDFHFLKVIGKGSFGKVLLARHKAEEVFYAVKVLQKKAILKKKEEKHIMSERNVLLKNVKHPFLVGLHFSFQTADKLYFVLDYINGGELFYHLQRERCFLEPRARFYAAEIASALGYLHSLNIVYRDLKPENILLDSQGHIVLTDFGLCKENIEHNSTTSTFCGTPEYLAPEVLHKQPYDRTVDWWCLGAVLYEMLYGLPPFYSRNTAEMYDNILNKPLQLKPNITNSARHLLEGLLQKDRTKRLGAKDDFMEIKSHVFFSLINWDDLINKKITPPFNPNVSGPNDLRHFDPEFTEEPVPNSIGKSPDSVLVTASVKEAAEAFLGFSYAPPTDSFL", "test": "biochemical", "settings": "read-out: % enzyme activity, 1 μM; Run 1, Run 2"}}}
{"smiles": "COc1cc(-c2cncc(-c3ccc(N4CCN(C)CC4)cc3)c2C)cc(F)c1C(N)=O", "note": "[Compound 26a, 2-Fluoro-6-methoxy-4-(4-methyl-5-(4-(4-methylpiperazin-1-yl)phenyl)pyridin-3-yl)benzamide]", "values": [{"measurement": "% enzyme activity", "setting": "PKCtheta", "result": 81.31, "unit": "%"}, {"measurement": "remaining activity at 1 µM", "setting": "TYRO3/SKY", "result": 84.1, "unit": "%"}, {"measurement": "% enzyme activity", "setting": "PLK2", "result": 97.24, "unit": "%"}, {"measurement": "remaining activity at 1 µM", "setting": "MAK", "result": 99.2, "unit": "%"}, {"measurement": "% enzyme activity", "setting": "TESK1", "result": 108.88, "unit": "%"}, {"measurement": "remaining activity at 1 µM", "setting": "GRK1", "result": 94, "unit": "%"}, {"measurement": "remaining activity at 1 µM", "setting": "SGK1", "result": 94.9, "unit": "%"}]}
{"smiles": "COc1cc(-c2cncc(-c3ccc(N4C[C@@H](C)N(C)[C@@H](C)C4)cc3)c2C)cc(F)c1C(N)=O", "note": "[Compound 26c, 2-Fluoro-6-methoxy-4-(4-methyl-5-(4-((3R,5S)-3,4,5-trimethylpiperazin-1-yl)phenyl)pyridin-3-yl)benzamide]", "values": [{"measurement": "% enzyme activity", "setting": "PKCtheta", "result": 84.96, "unit": "%"}, {"measurement": "remaining activity at 1 µM", "setting": "TYRO3/SKY", "result": 94.5, "unit": "%"}, {"measurement": "% enzyme activity", "setting": "PLK2", "result": 102.38, "unit": "%"}, {"measurement": "remaining activity at 1 µM", "setting": "MAK", "result": 119, "unit": "%"}, {"measurement": "% enzyme activity", "setting": "TESK1", "result": 105.23, "unit": "%"}, {"measurement": "remaining activity at 1 µM", "setting": "GRK1", "result": 95.3, "unit": "%"}, {"measurement": "remaining activity at 1 µM", "setting": "SGK1", "result": 98.8, "unit": "%"}]}
